Measurements published in patent publication US20240190874A1, “SMALL MOLECULE DEGRADERS OF ANDROGEN RECEPTOR” (THE REGENTS OF THE UNIVERSITY OF MICHIGAN, priority 2021, published 2024).
Read-outs that look alike come from different tables or passages of the source.

Experiments:
Type in all cases: cell-based
[1] = biological target: T1, AR (Homo sapiens, UniProt P10275); assay: Degradation of AR in VCaP cells; details: VCaP cells; for Dmax: VCaP
T1 construct: Degradation of AR; Cellular potency; host or cells: VCaP cells
T1 sequence (P10275 1-920): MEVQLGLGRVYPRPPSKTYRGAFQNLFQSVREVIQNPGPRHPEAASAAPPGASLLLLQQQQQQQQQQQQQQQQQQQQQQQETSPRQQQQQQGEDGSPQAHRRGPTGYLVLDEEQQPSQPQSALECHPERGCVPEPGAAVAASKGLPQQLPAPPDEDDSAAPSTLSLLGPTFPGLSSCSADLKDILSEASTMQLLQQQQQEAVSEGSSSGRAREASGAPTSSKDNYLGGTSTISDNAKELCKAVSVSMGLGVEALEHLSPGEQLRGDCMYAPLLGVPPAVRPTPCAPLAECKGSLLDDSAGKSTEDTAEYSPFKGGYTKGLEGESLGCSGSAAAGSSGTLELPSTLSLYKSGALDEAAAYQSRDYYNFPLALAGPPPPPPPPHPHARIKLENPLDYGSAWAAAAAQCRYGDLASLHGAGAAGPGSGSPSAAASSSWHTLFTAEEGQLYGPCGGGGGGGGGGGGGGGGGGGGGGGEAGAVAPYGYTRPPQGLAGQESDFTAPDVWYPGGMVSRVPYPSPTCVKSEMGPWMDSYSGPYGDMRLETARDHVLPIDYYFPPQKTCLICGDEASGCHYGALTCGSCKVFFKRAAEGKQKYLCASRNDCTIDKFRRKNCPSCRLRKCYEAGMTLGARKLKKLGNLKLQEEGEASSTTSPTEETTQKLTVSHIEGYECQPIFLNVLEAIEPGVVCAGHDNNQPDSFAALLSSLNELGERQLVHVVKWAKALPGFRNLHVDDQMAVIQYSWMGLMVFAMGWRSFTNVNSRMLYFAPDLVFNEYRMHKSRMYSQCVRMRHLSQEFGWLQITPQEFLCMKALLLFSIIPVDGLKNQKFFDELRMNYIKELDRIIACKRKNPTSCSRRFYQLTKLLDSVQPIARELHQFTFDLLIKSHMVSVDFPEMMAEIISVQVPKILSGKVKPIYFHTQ
Description: (§1) Biological Assays. LNCaP and VCaP cells used were purchased from American Type Culture Collection (ATCC). LNCaP were grown in RPMI 1640 (Invitrogen) and VCaP cells were grown in DMEM with Glutamax (Invitrogen). All of the cells were supplemented with 10% fetal bovine serum (Invitrogen) at 37° C. in a humidified 5% CO2 incubator.

[2] = test system: LNCaP cells; assay: Cellular potency (IC50) in LNCaP cells
Description: as §1

[3] = test system: VCaP cells; assay: Cellular potency (IC50) in VCaP cells
Description: as §1

SMILES | DC50 [1] [nM] | Dmax [1] [%] | IC50 ([2]; Homo sapiens, LNCaP) [nM] | IC50 ([3]; Homo sapiens, VCaP) [nM] | Degradation of AR in VCaP cells Dmax [1] | IC50 [2] [nM] | IC50 [3] [nM]
C[C@H]1CC2(CCN(c3ccc(S(=O)(=O)N4CCN(C5CN(c6ccc7c(c6)C(=O)N(C6CCC(=O)NC6=O)C7=O)C5)CC4)cc3)CC2)CN1c1ccc(C#N)c(Cl)c1 (some centres unmarked) [compound 2] | < 1 | > 90 | < 10 | < 10 | – | – | –
C[C@H]1CC2(CCN(c3ccc(CN4CCN(C5CCN(c6ccc7c(c6)C(=O)N(C6CCC(=O)NC6=O)C7=O)CC5)CC4)c(F)c3)CC2)CN1c1ccc(C#N)c(Cl)c1 (some centres unmarked) [compound 42] | < 10 | – | – | – | A (A = >90%) | < 100 | < 100
C[C@H]1CC2(CCN(c3ccc(C(=O)N4CCC(C(=O)CN5Cc6cc7c(cc6C5)C(=O)N(C5CCC(=O)NC5=O)C7=O)CC4)nc3)CC2)CN1c1ccc(C#N)c(Cl)c1 (some centres unmarked) [compound 160] | < 1 | – | < 10 | < 1000 | – | – | –
C[C@H]1CC2(CCN(c3ccc(N4CCC(N(C)C5CN(c6ccc7c(c6)C(=O)N(C6CCC(=O)NC6=O)C7=O)C5)CC4)cn3)CC2)CN1c1ccc(C#N)c(Cl)c1 (some centres unmarked) [compound 123] | < 1 | > 90 | < 10 | < 10 | – | – | –
C[C@H]1CC2(CCN(c3ccc(C4CCN(CC5CN(c6ccc7c(c6)C(=O)N(C6CCC(=O)NC6=O)C7=O)C5)CC4)cc3)CC2)CN1c1ccc(C#N)c(Cl)c1 (some centres unmarked) [compound 21] | < 1 | > 90 | < 10 | < 10 | – | – | –
C[C@H]1CC2(CCN(c3ccc(N4CCN(CC5CCN(c6ccc7c(c6)C(=O)N(C6CCC(=O)NC6=O)C7=O)CC5)CC4)nn3)CC2)CN1c1ccc(C#N)c(Cl)c1 (some centres unmarked) [compound 48] | < 1 | > 90 | < 10 | < 10 | – | – | –
C=C1CCC(N2C(=O)c3ccc(N4CCC(C5CCN(Cc6ccc(N7CCC8(CC7)C[C@H](C)N(c7ccc(C#N)c(Cl)c7)C8)cc6)CC5)CC4)cc3C2=O)C(=O)N1 (some centres unmarked) [compound 17] | – | 70 to 90 | < 100 | < 100 | – | – | –
C[C@H]1CC2(CCN(c3ccc(CN4CC(C5CCN(c6ccc7c(c6)C(=O)N(C6CCC(=O)NC6=O)C7=O)CC5)C4)cn3)CC2)CN1c1ccc(C#N)c(Cl)c1 (some centres unmarked) [compound 178] | < 10 | – | < 100 | < 100 | – | – | –
C[C@H]1CC2(CCN(c3ccc(OC4CCN(C5CN(c6ccc7c(c6)C(=O)N(C6CCC(=O)NC6=O)C7=O)C5)CC4)nn3)CC2)CN1c1ccc(C#N)c(Cl)c1 (some centres unmarked) [compound 62] | < 1 | > 90 | < 10 | < 10 | – | – | –
C[C@H]1CC2(CCN(c3ccc(CN4CC(N5CCN(c6cc7c(cc6F)C(=O)N(C6CCC(=O)NC6=O)C7=O)CC5)C4)cn3)CC2)CN1c1ccc(C#N)c(Cl)c1 (some centres unmarked) [compound 205] | < 1 | – | < 10 | < 10 | – | – | –
C[C@H]1CC2(CCN(c3ccc(CC4CCN(CC5CN(c6ccc7c(c6)C(=O)N(C6CCC(=O)NC6=O)C7=O)C5)CC4)cc3)CC2)CN1c1ccc(C#N)c(Cl)c1 (some centres unmarked) [compound 25] | < 1 | > 90 | < 10 | < 10 | – | – | –
C[C@H]1CC2(CCN(c3ccc(N4CCN(CC5CCN(c6ccc7c(c6)C(=O)N(C6CCC(=O)NC6=O)C7=O)CC5)CC4)nc3)CC2)CN1c1ccc(C#N)c(Cl)c1 (some centres unmarked) [compound 35] | < 1 | > 90 | < 10 | < 10 | – | – | –
C[C@H]1CC2(CCN(c3ccc(S(=O)(=O)C4CCN(C5CN(c6ccc7c(c6)C(=O)N(C6CCC(=O)NC6=O)C7=O)C5)CC4)cc3)CC2)CN1c1ccc(C#N)c(Cl)c1 (some centres unmarked) [compound 163] | < 1 | – | < 10 | < 10 | – | – | –
C[C@H]1CC2(CCN(c3ccc(C4CCN(CC5CN(c6ccc7c(c6)C(=O)N(C6CCC(=O)NC6=O)C7=O)C5)CC4)nc3)CC2)CN1c1ccc(C#N)c(Cl)c1 (some centres unmarked) [compound 45] | < 1 | > 90 | < 10 | < 10 | – | – | –
C[C@H]1CC2(CCN(c3ncc(C(=O)N4CCN(C5CN(c6ccc7c(c6)C(=O)N(C6CCC(=O)NC6=O)C7=O)C5)CC4)s3)CC2)CN1c1ccc(C#N)c(Cl)c1 (some centres unmarked) [compound 136] | < 1 | > 90 | < 10 | < 10 | – | – | –
C[C@H]1CC2(CCN(c3ccc(CN4CCC(C5CN(c6ccc7c(c6)C(=O)N(C6CCC(=O)NC6=O)C7=O)C5)CC4)c(F)c3)CC2)CN1c1ccc(C#N)c(Cl)c1 (some centres unmarked) [compound 9] | < 1 | > 90 | – | – | – | < 10 | < 10
C[C@H]1CC2(CCN(c3ccc(N4CCN(CC5CN(c6ccc7c(c6)C(=O)N(C6CCC(=O)NC6=O)C7=O)C5)CC4)cc3F)CC2)CN1c1ccc(C#N)c(Cl)c1 (some centres unmarked) [compound 37] | < 1 | > 90 | < 10 | < 10 | – | – | –
C[C@H]1CC2(CCN(c3cnc(C(=O)N4CCN(C5CN(c6ccc7c(c6)C(=O)N(C6CCC(=O)NC6=O)C7=O)C5)CC4)s3)CC2)CN1c1ccc(C#N)c(Cl)c1 (some centres unmarked) [compound 137] | < 10 | 70 to 90 | < 100 | < 100 | – | – | –
C[C@H]1CC2(CCN(c3ccc(S(=O)(=O)C4CCN(C5CCN(c6ccc7c(c6)C(=O)N(C6CCC(=O)NC6=O)C7=O)CC5)CC4)cc3)CC2)CN1c1ccc(C#N)c(Cl)c1 (some centres unmarked) [compound 161] | < 1 | – | < 10 | < 10 | – | – | –
C[C@H]1CC2(CCN(c3ccc(CN4CCN(C5CCN(c6ccc7c(c6)C(=O)N(C6CCC(=O)NC6=O)C7=O)CC5)CC4)c(F)c3)CC2)CN1c1ccc(C#N)c(Cl)c1 (some centres unmarked) [compound 10] | < 10 | > 90 | – | – | – | < 10 | < 10
C[C@H]1CC2(CCN(c3ccc(CN4CCC(N5CCN(c6cc7c(cc6F)C(=O)N(C6CCC(=O)NC6=O)C7=O)CC5)CC4)nn3)CC2)CN1c1ccc(C#N)c(Cl)c1 (some centres unmarked) [compound 203] | < 1 | – | < 10 | < 10 | – | – | –
C[C@H]1CC2(CCN(c3ccc(S(=O)(=O)N4CCC(N5Cc6cc7c(cc6C5)C(=O)N(C5CCC(=O)NC5=O)C7=O)CC4)cc3)CC2)CN1c1ccc(C#N)c(Cl)c1 (some centres unmarked) [compound 4] | < 1 | 70 to 90 | < 10 | < 10 | – | – | –
C[C@H]1CC2(CCN(c3ccc(C(=O)N4CCC(CN5CCOc6cc7c(cc6C5)C(=O)N(C5CCC(=O)NC5=O)C7=O)CC4)cc3)CC2)CN1c1ccc(C#N)c(Cl)c1 (some centres unmarked) [compound 195] | < 10 | – | < 10 | < 100 | – | – | –
C[C@H]1CC2(CCN(c3cnc(CN4CCN(C5CCN(c6ccc7c(c6)C(=O)N(C6CCC(=O)NC6=O)C7=O)CC5)CC4)nc3)CC2)CN1c1ccc(C#N)c(Cl)c1 (some centres unmarked) [compound 171] | < 10 | – | < 10 | < 100 | – | – | –
C[C@H]1CC2(CCN(c3ccc(N4CCC(CN5Cc6cc7c(cc6C5)C(=O)N(C5CCC(=O)NC5=O)C7=O)CC4)nc3)CC2)CN1c1ccc(C#N)c(Cl)c1 (some centres unmarked) [compound 54] | < 10 | > 90 | < 100 | < 100 | – | – | –
C[C@H]1CC2(CCN(c3cnc(CN4CCN(C5CN(c6ccc7c(c6)C(=O)N(C6CCC(=O)NC6=O)C7=O)C5)CC4)cn3)CC2)CN1c1ccc(C#N)c(Cl)c1 (some centres unmarked) [compound 185] | < 1 | – | < 100 | < 100 | – | – | –
C[C@H]1CC2(CCN(c3ccc(OC4CN(C5CCN(c6ccc7c(c6)C(=O)N(C6CCC(=O)NC6=O)C7=O)CC5)C4)cc3)CC2)CN1c1ccc(C#N)c(Cl)c1 (some centres unmarked) [compound 60] | < 1 | > 90 | < 10 | < 10 | – | – | –
C[C@H]1CC2(CCN(c3cnc(CN4CCN(C5CN(c6cc7c(cc6F)C(=O)N(C6CCC(=O)NC6=O)C7=O)C5)CC4)nc3)CC2)CN1c1ccc(C#N)c(Cl)c1 (some centres unmarked) [compound 175] | < 1 | – | < 10 | < 10 | – | – | –
C[C@H]1CC2(CCN(c3ccc(N4CCN(CC5CN(c6ccc7c(c6)C(=O)N(C6CCC(=O)NC6=O)C7=O)C5)CC4)cc3)CC2)CN1c1ccc(C#N)c(Cl)c1 (stereo partly drawn) [compound 28, 2-chloro-4-((3S)-8-(4-(4-((1-(2-(2,6-dioxopiperidin-3-yl)-1,3-dioxoisoindolin-5-yl)azetidin-3-yl)methyl)piperazin-1-yl)phenyl)-3-methyl-2,8-diazaspiro[4.5]decan-2-yl)benzonitrile] | – | > 90 | < 10 | < 10 | – | – | –
